Test results taken from patent publication US20260262643A1, “HERBICIDAL BENZOXAZINES” (FMC CORPORATION, priority 2022, published 2026).

Key:
barnyardgrass [1] = assay: Test C preemergence; assay type: in vivo, Echinochloa crusgalli; details: 0 to 100 scale (0 no effect, 100 complete control); for Plant response rating, Barnyardgrass: Preemergence, 500 g ai/ha, visual rating after 10 days; for Barnyardgrass plant response rating: Test C, preemergence, 125 g ai/ha
Outline: (§1)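 Test material, in non-phytotoxic solvent with surfactant, was sprayed on the soil directly after seeding (preemergence) or on young plants of 2–10 cm with one to two leaves (postemergence). Greenhouse, 10 days; 0–100 visual control scale.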

blackgrass [2] = assay: Test C preemergence; assay type: in vivo, Alopecurus myosuroides; details: 0 to 100 scale (0 no effect, 100 complete control); for Plant response rating, Blackgrass: Preemergence, 500 g ai/ha, visual rating after 10 days; for Blackgrass plant response rating: Test C, preemergence, 125 g ai/ha
Outline: as §1

corn [3] = assay: Test C preemergence; assay type: in vivo, Zea mays; details: 0 to 100 scale (0 no effect, 100 complete control); for Plant response rating, Corn: Preemergence, 500 g ai/ha, visual rating after 10 days; for Corn plant response rating: Test C, preemergence, 125 g ai/ha
Outline: as §1

green foxtail [4] = assay: Test C preemergence; assay type: in vivo, Setaria viridis; details: 0 to 100 scale (0 no effect, 100 complete control); for Plant response rating, Foxtail, Green: Preemergence, 500 g ai/ha, visual rating after 10 days; for Foxtail, Green plant response rating: Test C, preemergence, 125 g ai/ha
Outline: as §1

kochia [5] = assay: Test C preemergence; assay type: in vivo, Bassia scoparia; details: 0 to 100 scale (0 no effect, 100 complete control); for Plant response rating, Kochia: Preemergence, 500 g ai/ha, visual rating after 10 days; for Kochia plant response rating: Test C, preemergence, 125 g ai/ha
Outline: as §1

oat, wild [6] = assay: Test C preemergence; assay type: in vivo, Avena fatua; details: 0 to 100 scale (0 no effect, 100 complete control); for Plant response rating, Oat, Wild: Preemergence, 500 g ai/ha, visual rating after 10 days; for Oat, Wild plant response rating: Test C, preemergence, 125 g ai/ha
Outline: as §1

pigweed, palmer [7] = assay: Test C preemergence; assay type: in vivo, Amaranthus palmeri; details: 0 to 100 scale (0 no effect, 100 complete control); for Plant response rating, Pigweed, Palmer: Preemergence, 500 g ai/ha, visual rating after 10 days; for Pigweed, Palmer plant response rating: Test C, preemergence, 125 g ai/ha
Outline: as §1

ragweed [8] = assay: Test C preemergence; assay type: in vivo, Ambrosia artemisiifolia; details: 0 to 100 scale (0 no effect, 100 complete control); for Plant response rating, Ragweed: Preemergence, 500 g ai/ha, visual rating after 10 days; for Ragweed plant response rating: Test C, preemergence, 125 g ai/ha
Outline: as §1

ryegrass, Italian [9] = assay: Test C preemergence; assay type: in vivo, Lolium multiflorum; details: 0 to 100 scale (0 no effect, 100 complete control); for Plant response rating, Ryegrass, Italian: Preemergence, 500 g ai/ha, visual rating after 10 days; for Ryegrass, Italian plant response rating: Test C, preemergence, 125 g ai/ha
Outline: as §1

soybean [10] = assay: Test C preemergence; assay type: in vivo, Glycine max; details: 0 to 100 scale (0 no effect, 100 complete control); for Plant response rating, Soybean: Preemergence, 500 g ai/ha, visual rating after 10 days; for Soybean plant response rating: Test C, preemergence, 125 g ai/ha
Outline: as §1

wheat [11] = assay: Test C preemergence; assay type: in vivo, Triticum aestivum; details: 0 to 100 scale (0 no effect, 100 complete control); for Plant response rating, Wheat: Preemergence, 500 g ai/ha, visual rating after 10 days; for Wheat plant response rating: Test C, preemergence, 125 g ai/ha
Outline: as §1

barnyardgrass [12] = assay: Test C postemergence; assay type: in vivo, Echinochloa crusgalli; details: 10 days
Outline: as §1

blackgrass [13] = assay: Test C postemergence; assay type: in vivo, Alopecurus myosuroides; details: 10 days
Outline: as §1

corn [14] = assay: Test C postemergence; assay type: in vivo, Zea mays; details: 10 days
Outline: as §1

green foxtail [15] = assay: Test C postemergence; assay type: in vivo, Setaria viridis; details: 10 days
Outline: as §1

kochia [16] = assay: Test C postemergence; assay type: in vivo, Bassia scoparia; details: 10 days
Outline: as §1

oat, wild [17] = assay: Test C postemergence; assay type: in vivo, Avena fatua; details: 10 days
Outline: as §1

pigweed, palmer [18] = assay: Test C postemergence; assay type: in vivo, Amaranthus palmeri; details: 10 days
Outline: as §1

ragweed [19] = assay: Test C postemergence; assay type: in vivo, Ambrosia artemisiifolia; details: 10 days
Outline: as §1

ryegrass, Italian [20] = assay: Test C postemergence; assay type: in vivo, Lolium multiflorum; details: 10 days
Outline: as §1

soybean [21] = assay: Test C postemergence; assay type: in vivo, Glycine max; details: 10 days
Outline: as §1

wheat [22] = assay: Test C postemergence; assay type: in vivo, Triticum aestivum; details: 10 days
Outline: as §1

horseweed = assay: Test C postemergence; assay type: in vivo, Erigeron canadensis; details: 10 days
Outline: as §1

barnyardgrass [23] = assay: Test D flooded paddy test; assay type: in vivo, Echinochloa crus-galli; details: 250 g ai/ha, applied to paddy water, visual rating after 13 to 14 days, scale 0 to 100 (0 no effect, 100 complete control)
Outline: (§2)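 At the 2-leaf stage, floodwater 3 cm deep received the test compound; that depth persisted throughout. Plants scored visually 13 to 14 days on, 0 (no effect) to 100 (complete control), dash indicating no result.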

ducksalad = assay: Test D flooded paddy test; assay type: in vivo, Heteranthera limosa; details: 250 g ai/ha, applied to paddy water, visual rating after 13 to 14 days, scale 0 to 100 (0 no effect, 100 complete control)
Outline: as §2

rice = assay: Test D flooded paddy test; assay type: in vivo, Oryza sativa; details: 250 g ai/ha, applied to paddy water, visual rating after 13 to 14 days, scale 0 to 100 (0 no effect, 100 complete control)
Outline: as §2

sedge, umbrella = assay: Test D flooded paddy test; assay type: in vivo, Cyperus difformis; details: 250 g ai/ha, applied to paddy water, visual rating after 13 to 14 days, scale 0 to 100 (0 no effect, 100 complete control)
Outline: as §2

[24] = 125 g ai/ha, postemergence, 0 to 100 scale, 0 no effect, 100 complete control
[25] = Postemergence, 500 g ai/ha, visual 0 to 100 scale (0 no effect, 100 complete control)

COc1cc(C(=O)N2C[C@H](C)Oc3c(Cl)cccc32)cc(-n2cnc(C)n2)c1 [Compound 215]
80: Barnyardgrass plant response rating (barnyardgrass [1]) | Soybean plant response rating (soybean [10]) | Plant response rating, Kochia (kochia [16]; [24])
60: Plant response rating, Corn (corn [3]) | Plant response rating, Barnyardgrass (barnyardgrass [12]; [24]) | Plant response rating, Ragweed (ragweed [19]; [24])
100: Plant response rating, Barnyardgrass (barnyardgrass [1]) | Plant response rating, Foxtail, Green (green foxtail [4]) | Foxtail, Green plant response rating (green foxtail [4]) | Plant response rating, Kochia (kochia [5]) | Plant response rating, Pigweed, Palmer (pigweed, palmer [7]) | Pigweed, Palmer plant response rating (pigweed, palmer [7]) | Plant response rating, Ryegrass, Italian (ryegrass, Italian [9]) | Plant response rating, Soybean (soybean [10]) | Plant response rating, Pigweed, Palmer (pigweed, palmer [18]; [25]) | Plant response rating, Soybean (soybean [21]; [24]) | Plant response rating, Soybean (soybean [21]; [25]) | Plant response rating, Ducksalad (Flood) (ducksalad) | Plant response rating, Sedge, Umbrella (Flood) (sedge, umbrella)
70: Blackgrass plant response rating (blackgrass [2]) | Plant response rating, Barnyardgrass (barnyardgrass [12]; [25]) | Plant response rating, Corn (corn [14]; [24]) | Plant response rating, Ragweed (ragweed [19]; [25]) | Plant response rating, Ryegrass, Italian (ryegrass, Italian [20]; [24]) | Plant response rating, Wheat (wheat [22]; [25]) | Plant response rating, Horseweed (horseweed; [25])
20: Wheat plant response rating (wheat [11])
30: Corn plant response rating (corn [3]) | Plant response rating, Ragweed (ragweed [8]) | Plant response rating, Oat, Wild (oat, wild [17]; [24]) | Plant response rating, Wheat (wheat [22]; [24])
50: Oat, Wild plant response rating (oat, wild [6]) | Plant response rating, Oat, Wild (oat, wild [17]; [25]) | Plant response rating, Barnyardgrass (Flood) (barnyardgrass [23])
90: Plant response rating, Blackgrass (blackgrass [2]) | Kochia plant response rating (kochia [5]) | Plant response rating, Oat, Wild (oat, wild [6]) | Ryegrass, Italian plant response rating (ryegrass, Italian [9]) | Plant response rating, Wheat (wheat [11]) | Plant response rating, Blackgrass (blackgrass [13]; [24]) | Plant response rating, Blackgrass (blackgrass [13]; [25]) | Plant response rating, Corn (corn [14]; [25]) | Plant response rating, Foxtail, Green (green foxtail [15]; [24]) | Plant response rating, Foxtail, Green (green foxtail [15]; [25]) | Plant response rating, Kochia (kochia [16]; [25]) | Plant response rating, Pigweed, Palmer (pigweed, palmer [18]; [24]) | Plant response rating, Ryegrass, Italian (ryegrass, Italian [20]; [25])
0: Ragweed plant response rating (ragweed [8]) | Plant response rating, Horseweed (horseweed; [24])
55: Plant response rating, Rice (Flood) (rice)

COc1cc(C(=O)N2C[C@H](C)Oc3c(Cl)cccc32)cc(-n2cnc(C3CC3)n2)c1 [Compound 216]
95: Plant response rating, Sedge, Umbrella (Flood) (sedge, umbrella)
40: Barnyardgrass plant response rating (barnyardgrass [1]) | Plant response rating, Oat, Wild (oat, wild [6]) | Plant response rating, Ragweed (ragweed [8]) | Plant response rating, Barnyardgrass (Flood) (barnyardgrass [23])
50: Soybean plant response rating (soybean [10]) | Plant response rating, Horseweed (horseweed; [25])
90: Plant response rating, Barnyardgrass (barnyardgrass [1]) | Plant response rating, Blackgrass (blackgrass [2]) | Plant response rating, Ryegrass, Italian (ryegrass, Italian [9]) | Plant response rating, Foxtail, Green (green foxtail [15]; [25]) | Plant response rating, Kochia (kochia [16]; [25]) | Plant response rating, Pigweed, Palmer (pigweed, palmer [18]; [25])
70: Kochia plant response rating (kochia [5]) | Plant response rating, Foxtail, Green (green foxtail [15]; [24])
30: Plant response rating, Corn (corn [3]) | Plant response rating, Blackgrass (blackgrass [13]; [24]) | Plant response rating, Wheat (wheat [22]; [25])
10: Plant response rating, Barnyardgrass (barnyardgrass [12]; [24]) | Plant response rating, Corn (corn [14]; [24]) | Plant response rating, Rice (Flood) (rice)
100: Plant response rating, Foxtail, Green (green foxtail [4]) | Foxtail, Green plant response rating (green foxtail [4]) | Plant response rating, Kochia (kochia [5]) | Plant response rating, Pigweed, Palmer (pigweed, palmer [7]) | Pigweed, Palmer plant response rating (pigweed, palmer [7]) | Plant response rating, Soybean (soybean [10]) | Plant response rating, Blackgrass (blackgrass [13]; [25]) | Plant response rating, Soybean (soybean [21]; [24]) | Plant response rating, Soybean (soybean [21]; [25]) | Plant response rating, Ducksalad (Flood) (ducksalad)
60: Plant response rating, Barnyardgrass (barnyardgrass [12]; [25]) | Plant response rating, Ragweed (ragweed [19]; [24]) | Plant response rating, Ryegrass, Italian (ryegrass, Italian [20]; [25])
0: Corn plant response rating (corn [3]) | Oat, Wild plant response rating (oat, wild [6]) | Ragweed plant response rating (ragweed [8]) | Wheat plant response rating (wheat [11]) | Plant response rating, Horseweed (horseweed; [24])
80: Ryegrass, Italian plant response rating (ryegrass, Italian [9]) | Plant response rating, Kochia (kochia [16]; [24]) | Plant response rating, Pigweed, Palmer (pigweed, palmer [18]; [24]) | Plant response rating, Ragweed (ragweed [19]; [25])
20: Blackgrass plant response rating (blackgrass [2]) | Plant response rating, Wheat (wheat [11]) | Plant response rating, Corn (corn [14]; [25]) | Plant response rating, Oat, Wild (oat, wild [17]; [24]) | Plant response rating, Oat, Wild (oat, wild [17]; [25]) | Plant response rating, Ryegrass, Italian (ryegrass, Italian [20]; [24]) | Plant response rating, Wheat (wheat [22]; [24])
